Data: US20250034170A1, “SMALL MOLECULE MODULATORS OF GLUCOCEREBROSIDASE ACTIVITY AND USES THEREOF” (Vanqua Bio, Inc., priority 2021, published 2025)

Molecular target: T1, GCase (Homo sapiens, UniProt P04062)
T1 construct: endogenous in cells; host or cells: HeLa cells
T1 sequence (P04062 40-536): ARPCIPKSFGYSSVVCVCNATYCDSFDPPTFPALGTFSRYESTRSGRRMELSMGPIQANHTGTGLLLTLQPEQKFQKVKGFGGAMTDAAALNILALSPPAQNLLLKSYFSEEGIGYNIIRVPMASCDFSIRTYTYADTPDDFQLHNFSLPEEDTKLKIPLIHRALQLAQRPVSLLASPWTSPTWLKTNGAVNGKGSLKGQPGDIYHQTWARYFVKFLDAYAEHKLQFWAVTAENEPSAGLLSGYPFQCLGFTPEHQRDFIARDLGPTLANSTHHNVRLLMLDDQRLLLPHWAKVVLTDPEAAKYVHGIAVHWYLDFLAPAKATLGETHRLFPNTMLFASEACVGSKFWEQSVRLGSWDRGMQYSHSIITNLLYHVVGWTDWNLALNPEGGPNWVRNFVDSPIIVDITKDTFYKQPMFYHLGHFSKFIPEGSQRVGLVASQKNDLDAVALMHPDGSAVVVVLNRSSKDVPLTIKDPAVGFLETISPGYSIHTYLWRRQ
Assay: activation of GCase in a live cell PFB assay in HELA cells
Type: cell-based
Experimental: Exemplary compounds were evaluated for activation of GCase in a live cell PFB assay in HELA cells (essentially as described in Ysselstein et al., “LRRK2 kinase activity regulates lysosomal glucocerebrosidase in neurons derived from Parkinson's disease patients” Nature Communications (2019) 10:5570). […] EC50 ranges: A: <10 μM; B: >10-50 μM; C: >50-100 μM; D: >100 μM.

[1] = activation of GCase, EC50 ranges

Compound: FC(F)Cn1ncc2ncc(N3CCCC4(CN(c5cccc(C(F)(F)F)n5)C4)C3)nc21 [Compound 23, 6-[1-(2,2-difluoroethyl)-1H-pyrazolo[3,4-b]pyrazin-6-yl]-2-[6-(trifluoromethyl)pyridin-2-yl]-2,6-diazaspiro[3.5]nonane]
- EC50 [1]: 10 to 50 µM

Compound: Cc1nn(CC(F)F)c2nc(N3CCC4(CCN(c5cc(C(F)F)ccn5)CC4)C3)cnc12 [Compound 163, 2-[1-(2,2-difluoroethyl)-3-methyl-1H-pyrazolo[3,4-b]pyrazin-6-yl]-8-[4-(difluoromethyl)pyridin-2-yl]-2,8-diazaspiro[4.5]decane]
- EC50 [1]: < 10 µM

Compound: FC(F)Cn1ncc2ncc(N3CCC4(CC3)CN(c3ccc(C(F)(F)F)nc3)CCO4)nc21 [Cmpd 205]
- EC50 (EC50 given as range classes): < 10 µM

Compound: Cc1nc(N2CCC3(CCN(c4nc5c(cnn5CC(F)F)c(=O)n4CC(C)C)CC3)C2)cc(C(F)(F)F)n1 [Cmpd 1107]
- EC50 [1]: < 10 µM

Compound: Cc1cc(N2CC3(CCN(c4ncc5c(C)nn(CC(F)F)c5n4)C3)C2)nc(C(F)(F)F)n1 [Cmpd 468]
- EC50 [1]: < 10 µM

Compound: Cc1nc(N2CC3(CCN(c4ncc5cnn(CC(F)F)c5n4)C3)C2)cc(C(F)(F)F)n1 [Cmpd 501]
- EC50 [1]: > 100 µM

Compound: Cc1nn(CC(F)F)c2nc(N3CCC4(CN(c5cnc(C(F)(F)F)nc5)C4)C3)ncc12 [Cmpd 433]
- EC50 (EC50 given as range classes): 10 to 50 µM

Compound: O=C1N(Cc2nc(C(F)(F)F)cs2)CCC12CCN(c1cnc3cnn(CC(F)F)c3n1)CC2 [Cmpd 365]
- EC50 [1]: 10 to 50 µM

Compound: O=C1N(c2cccc(C(F)(F)F)n2)CCC12CCN(c1cnc3cnn(CC(F)F)c3n1)CC2 [Compound 102, 8-[1-(2,2-difluoroethyl)-1H-pyrazolo[3,4-b]pyrazin-6-yl]-2-[6-(trifluoromethyl)pyridin-2-yl]-2,8-diazaspiro[4.5]decan-1-one]
- EC50 [1]: 10 to 50 µM

Compound: FC(F)Cn1ncc2ncc(N3CCC4(CN(c5ccnc(OC(F)F)c5)C4)C3)nc21 [Cmpd 452]
- EC50 [1]: < 10 µM

Compound: Cc1ncc(CN2CC3(CCN(c4cnc5cnn(CC(F)F)c5n4)CC3)CC2=O)o1 [Cmpd 974]
- EC50 [1]: 50 to 100 µM

Compound: Cc1nc(N2CC3(CCN(c4cnc5c(C)nn(CC(F)(F)F)c5n4)CC3)C2)cc(C(F)(F)F)n1 [Cmpd 610]
- EC50 (EC50 given as range classes): < 10 µM

Compound: FC(F)Cn1ncc2ncc(N3CCC4(CC3)CCN(c3nccnc3C(F)(F)F)C4)nc21 [Cmpd 735]
- EC50 [1]: 10 to 50 µM

Compound: CCn1c(N2CCC3(CCN(c4ccnc(C(F)(F)F)c4)C3)CC2)nc2c(cnn2CC(F)F)c1=O [Cmpd 1099]
- EC50 [1]: < 10 µM

Compound: CCN1C(=O)N(c2ccc(C(F)(F)F)nc2)C(=O)C12CCN(c1cnc3c(C)nn(C4COC4)c3n1)CC2 [Cmpd 870]
- EC50 [1]: > 100 µM

Compound: Cc1nn(C2COC2)c2nc(N3CCC4(CCN(c5cnc(C(F)(F)F)nc5)C4)C3)ncc12 (stereo not shown) [Cmpd 536]
- EC50 [1]: < 10 µM

Compound: O=C1CC2(CCN(c3cnc4cnn(CC(F)F)c4n3)CC2)CN1Cc1cccc(C(F)(F)F)n1 [Cmpd 360]
- EC50 [1]: < 10 µM

Compound: Cc1nc(C(F)(F)F)ncc1N1CCC2(CCN(c3cnc4cnn(C5COC5)c4n3)CC2)C1 [Cmpd 1056]
- EC50 [1]: 10 to 50 µM

Compound: FC(F)Cn1ncc2ncc(N3CCC4(CC3)CC(Oc3cc(C(F)(F)F)ccn3)C4)nc21 [Cmpd 705]
- EC50 [1]: 10 to 50 µM

Compound: FC(F)Cn1ncc2ncc(N3CC4(CC(COc5cccnc5C(F)(F)F)C4)C3)nc21 [Compound 131, 2-[1-(2,2-difluoroethyl)-1H-pyrazolo[3,4-b]pyrazin-6-yl]-6-({[2-(trifluoromethyl)pyridin-3-yl]oxy}methyl)-2-azaspiro[3.3]heptane]
- EC50 [1]: < 10 µM

Compound: FC(F)Cn1ncc2ncc(N3CCC4(CCN(c5cccc(C(F)(F)F)n5)CC4)C3)nc21 [Compound 149, 2-[1-(2,2-difluoroethyl)-1H-pyrazolo[3,4-b]pyrazin-6-yl]-8-[6-(trifluoromethyl)pyridin-2-yl]-2,8-diazaspiro[4.5]decane]
- EC50 [1]: < 10 µM

Compound: Cc1nc(N2CC3(CCN(c4cnc5cnn(CC(F)F)c5n4)C3)CC2=O)cc(C(F)(F)F)n1 (stereo not shown) [Cmpd 510]
- EC50 [1]: > 100 µM

Compound: FC(F)Cn1ncc2ncc(N3CCCC4(CN(c5ccccc5)C4)C3)nc21 [Compound 19, 6-[1-(2,2-difluoroethyl)-1H-pyrazolo[3,4-b]pyrazin-6-yl]-2-phenyl-2,6-diazaspiro[3.5]nonane]
- EC50 [1]: 10 to 50 µM

Compound: Cc1nc(N2CC3(CCN(c4cc5c(cn4)cnn5CC(F)F)C3)C2)cc(C(F)(F)F)n1 [Cmpd 631]
- EC50 (EC50 given as range classes): 10 to 50 µM

Compound: Cc1nn(CC(F)F)c2nc(N3CCC4(CC3)CC(=O)N(c3ccc(C(F)(F)F)nc3)C4)cnc12 [Cmpd 258]
- EC50 [1]: < 10 µM

Compound: Cc1nc(N2CC3(CCN(c4cncc(-c5nncs5)n4)C3)C2)cc(C(F)(F)F)n1 [Cmpd 505]
- EC50 [1]: > 100 µM

Compound: Cc1nc(N2CCC3(CCN(c4ncc5cnn(C6COC6)c5n4)CC3)C2)cc(C(F)(F)F)n1 [Cmpd 573]
- EC50 [1]: > 100 µM

Compound: Cc1nn(CC(F)F)c2nc(N3CCC4(CC3)CC(=O)N(c3cc(C(F)(F)F)ccn3)C4)ncc12 [Cmpd 302]
- EC50 [1]: < 10 µM

Compound: FC(F)Cn1ncc2ncc(N3CCC4(CCC(Oc5ccc(C(F)(F)F)cn5)C4)CC3)nc21 (stereo not shown) [Cmpd 694]
- EC50 [1]: 10 to 50 µM

Compound: FC(F)Cn1ncc2ncc(N3CCC4(CCN(c5cnc(C(F)(F)F)nc5)C4)CC3)nc21 [Cmpd 736]
- EC50 [1]: 10 to 50 µM

Compound: Cn1c(N2CCC3(CN(c4ccnc(C(F)(F)F)c4)C3)C2)nc2c(cnn2C2COC2)c1=O [Cmpd 993]
- EC50 (EC50 given as range classes): 50 to 100 µM

Compound: Cc1nc(N2CC3(CCN(c4ncc5cnn(C)c5n4)C3)C2)cc(C(F)(F)F)n1 [Cmpd 647]
- EC50 [1]: 10 to 50 µM

Compound: FC(F)Cn1ncc2ncc(N3CC4(CCN(c5ccnc(C(F)(F)F)c5)C4)C3)nc21 [Cmpd 222]
- EC50 (EC50 given as range classes): 10 to 50 µM

Compound: Cc1nc(N2CC3(CCN(c4ccc5c(C)nn(CC(F)F)c5n4)CC3)C2)cc(C(F)(F)F)n1 [Cmpd 624]
- EC50 (EC50 given as range classes): < 10 µM

Compound: Cc1ccc(N2CC3(CCN(c4cnc5cnn(CC(F)F)c5n4)CC3)CC2=O)c(OC(F)(F)F)n1 [Cmpd 782]
- EC50 (EC50 given as range classes): < 10 µM

Compound: FC(F)Cn1ncc2ncc(N3CCC4(CCC(Oc5cc(C(F)(F)F)ccn5)C4)CC3)nc21 (stereo not shown) [Cmpd 692]
- EC50 [1]: 10 to 50 µM

Compound: Cc1nn(CC(F)F)c2nc(N3CC4(CCN(c5ccnc(C(F)(F)F)c5)C4)C3)cnc12 [Cmpd 353]
- EC50 [1]: < 10 µM

Compound: FC(F)Cn1ncc2ncc(N3CCC4(CCN(c5ccc(C(F)(F)F)nc5)C4)CC3)nc21 [Compound 147, 8-[1-(2,2-difluoroethyl)-1H-pyrazolo[3,4-b]pyrazin-6-yl]-2-[6-(trifluoromethyl)pyridin-3-yl]-2,8-diazaspiro[4.5]decane]
- EC50 [1]: < 10 µM

Compound: Cc1cc(N2CC3(CCN(c4ncc5cnn(C6COC6)c5n4)C3)C2)nc(C(F)(F)F)n1 [Cmpd 590]
- EC50 (EC50 given as range classes): 10 to 50 µM

Compound: CCC1N(c2ccc(C(F)(F)F)nc2)C(=O)CC12CCN(c1cnc3cnn(CC(F)F)c3n1)CC2 (stereo not shown) [Cmpd 852]
- EC50 [1]: 10 to 50 µM

Compound: O=C1CC2(CCN(c3cnc4cnn(CC(F)F)c4n3)CC2)CN1Cc1cc(F)ccc1F [Cmpd 447]
- EC50 [1]: < 10 µM

Compound: COc1ncc(N2CCC3(CCN(c4cnc5cnn(CC(F)F)c5n4)CC3)C2)cn1 [Cmpd 762]
- EC50 [1]: < 10 µM

Compound: O=C1CC2(CCN(c3cnc4cnn(CC(F)F)c4n3)CC2)CN1Cc1cc(F)cc(F)c1 [Cmpd 363]
- EC50 [1]: < 10 µM

Compound: FC(F)Cn1ncc2ncc(N3CCC4(CCN(c5cnc(OCC(F)(F)F)nc5)C4)CC3)nc21 [Cmpd 739]
- EC50 [1]: < 10 µM

Compound: Cc1nn(CC(F)F)c2nc(N3CCC4(CN(c5ccnc(C(F)(F)F)c5)C4)C3)cnc12 [Cmpd 985]
- EC50 (EC50 given as range classes): > 100 µM

Compound: O=C1N(c2ccc(C(F)(F)F)nc2)c2ccccc2C12CCN(c1cnc3cnn(CC(F)F)c3n1)CC2 [Cmpd 261]
- EC50 [1]: 10 to 50 µM
